Results reported in patent publication US10098346B2, “Diphenyliodonium salts as sulfidogenesis inhibitors and antimicrobials” (Ecolab USA Inc., priority 2015, dated 2018).

What was measured:
Type in all cases: cell-based
[1] = tested on: hydrogen sulfide production by sulfur utilizing prokaryote; experiment: Hydrogen sulfide test kit (HACH, Model HS-C) in injection water aliquots; details: injection water (synthetic seawater, produced water, lactate, thiosulfate); 0.1-100 ppm; up to 305 days
Procedure: (§1) A hydrogen sulfide test kit (HACH, Model HS-C) and an AccuCount test kit (available from Nalco Champion) were used to test the efficacy of diphenyliodonium chloride (DPIC) and diphenyliodonium nitrate (DPIN) in 100 mL aliquots of injection water collected by mixing synthetic seawater, produced water from an oil and gas production facility off-shore California, USA, lactate, and thiosulfate. The results of the testing of DPIC at 11 days, 84 days, and 305 days at concentrations of 0.1 ppm, 1 ppm, 10 ppm, and 100 ppm are shown in FIG. 2. The results of the testing of DPIC at 84 days and 305 days at concentrations of 0.1 ppm, 1 ppm, and 10 ppm are shown in FIG. 3. The results of the testing of DPIC and DPIN at 1 day, 7 days, and 14 days at concentrations of 0.1 ppm, 1 ppm, and 10 ppm in synthetic seawater are shown in the FIG. 4. The results of testing of DPIC and DPIN at 4 hours, 1 day, and 30 days at concentrations of 10 ppm and 100 ppm in 80% produced water, 50% produced water, and 20% produced water are shown in FIG. 5.

active microbes = experiment: AccuCount test kit, level of active microbes in injection water aliquots; details: injection water (synthetic seawater, produced water, lactate, thiosulfate); 0.1-100 ppm; up to 305 days
Procedure: as §1

[2] = Next-generation DNA sequencing, relative abundance of each genus in treated samples; details: DPIC 1 ppm - 305 Days
[3] = tested on: sulfur reducing prokaryotes; experiment: as above; details: 1 ppm, 305 days

## [Cl-].c1ccc([I+]c2ccccc2)cc1 [DPIC, diphenyliodonium chloride]
[1]
  reducing the concentration hydrogen sulfide: effective
Active microbes
  reducing the level of active microbes: effective
[2]
  Relative Abundance, Acholeplasma sp. (APB): 0.2%
  Relative Abundance, Citrobacter sp. (APB): 0.3%
  Relative Abundance, Cryptanaerobacter sp. (APB): 0.1%
  Relative Abundance, Kluyvera sp. (APB/GHB/NRB): 3.5%
  Relative Abundance, Mangrovibacter sp. (NRB): 0.2%
  Relative Abundance, Proteiniphilum sp. (APB): 0.3%
  Relative Abundance, Pseudomonas sp. (NRB/GHB): 0.5%
  Relative Abundance, Raoultella sp. (APB): 28.8%
  Relative Abundance, Serratia sp. (NRB/GHB): 59.3%
  Relative Abundance, Shimwellia sp. (APB): 6.7%
  Relative Abundance, Sphaerochaeta sp. (APB): 0.2%
  Relative Abundance, Thermovirga sp. (SRB): 0.1%
[3]
  sulfur reducing prokaryotes by DNA sequencing: no detectable

## O=[N+]([O-])[O-].c1ccc([I+]c2ccccc2)cc1 [DPIN, diphenyliodonium nitrate]
[1]
  reducing the concentration hydrogen sulfide: effective
Active microbes
  reducing the level of active microbes: effective
